Experimental data reported in the NIST ThermoML archive (doi:10.1021/je0601208).
± gives the expanded uncertainty stated by the source.

Assays:
[1] = refractive index (Na D-line) (dimensionless); xn = mol fraction of the nth substance listed; settings: 100.5 kPa, Liquid, Standard Abbe refractometry
[2] = xn = mol fraction of the nth substance listed

CCOC(=O)Cc1ccccc1 [ethyl phenylacetate] + CCO
Settings | refractive index, 288.15 K | refractive index, 298.15 K | refractive index, 308.15 K | refractive index, 318.15 K | surface tension liquid-gas, 288.15 K [mN/m] | surface tension liquid-gas, 298.15 K [mN/m] | surface tension liquid-gas, 308.15 K [mN/m] | surface tension liquid-gas, 318.15 K [mN/m]
[1], x1 = 0.05 | 1.38109 ± 0.00032 | 1.37693 ± 0.00032 | 1.37265 ± 0.00032 | 1.36852 ± 0.00032 | – | – | – | –
[1], x1 = 0.1 | 1.39604 ± 0.00032 | 1.3918 ± 0.00032 | 1.38745 ± 0.00032 | 1.38323 ± 0.00032 | – | – | – | –
[1], x1 = 0.15 | 1.4087 ± 0.00032 | 1.40441 ± 0.00032 | 1.40003 ± 0.00032 | 1.39573 ± 0.00032 | – | – | – | –
[1], x1 = 0.2 | 1.41969 ± 0.00032 | 1.41536 ± 0.00032 | 1.41093 ± 0.00032 | 1.40653 ± 0.00032 | – | – | – | –
[1], x1 = 0.25 | 1.42932 ± 0.00032 | 1.42491 ± 0.00032 | 1.42047 ± 0.00032 | 1.41597 ± 0.00032 | – | – | – | –
[1], x1 = 0.3 | 1.4379 ± 0.00032 | 1.43347 ± 0.00032 | 1.42899 ± 0.00032 | 1.42447 ± 0.00032 | – | – | – | –
[1], x1 = 0.35 | 1.44556 ± 0.00032 | 1.44111 ± 0.00032 | 1.43661 ± 0.00032 | 1.43203 ± 0.00032 | – | – | – | –
[1], x1 = 0.4 | 1.45242 ± 0.00032 | 1.44792 ± 0.00032 | 1.44342 ± 0.00032 | 1.43878 ± 0.00032 | – | – | – | –
[1], x1 = 0.45 | 1.45856 ± 0.00032 | 1.45402 ± 0.00032 | 1.44951 ± 0.00032 | 1.44484 ± 0.00032 | – | – | – | –
[1], x1 = 0.5 | 1.46406 ± 0.00032 | 1.45953 ± 0.00032 | 1.455 ± 0.00032 | 1.4503 ± 0.00032 | – | – | – | –
[1], x1 = 0.55 | 1.46909 ± 0.00032 | 1.46454 ± 0.00032 | 1.45999 ± 0.00032 | 1.45524 ± 0.00032 | – | – | – | –
[1], x1 = 0.6 | 1.47365 ± 0.00032 | 1.46908 ± 0.00032 | 1.46451 ± 0.00032 | 1.45975 ± 0.00032 | – | – | – | –
[1], x1 = 0.65 | 1.47785 ± 0.00032 | 1.47324 ± 0.00032 | 1.46869 ± 0.00033 | 1.46391 ± 0.00033 | – | – | – | –
[1], x1 = 0.7 | 1.48174 ± 0.00033 | 1.47713 ± 0.00033 | 1.47255 ± 0.00033 | 1.46775 ± 0.00033 | – | – | – | –
[1], x1 = 0.75 | 1.48536 ± 0.00033 | 1.48072 ± 0.00033 | 1.47613 ± 0.00033 | 1.47132 ± 0.00033 | – | – | – | –
[1], x1 = 0.8 | 1.48865 ± 0.00033 | 1.48403 ± 0.00033 | 1.47943 ± 0.00033 | 1.47458 ± 0.00033 | – | – | – | –
[1], x1 = 0.85 | 1.4917 ± 0.00033 | 1.48707 ± 0.00033 | 1.48248 ± 0.00033 | 1.47763 ± 0.00033 | – | – | – | –
[1], x1 = 0.9 | 1.49461 ± 0.00033 | 1.48996 ± 0.00033 | 1.48539 ± 0.00033 | 1.48053 ± 0.00033 | – | – | – | –
[1], x1 = 0.95 | 1.4973 ± 0.00033 | 1.49266 ± 0.00033 | 1.4881 ± 0.00033 | 1.48323 ± 0.00033 | – | – | – | –
[1], x1 = 1 | 1.49971 ± 0.00034 | 1.49513 ± 0.00034 | 1.49063 ± 0.00034 | 1.48583 ± 0.00034 | – | – | – | –
[2], x1 = 0.05 | – | – | – | – | 23.9 ± 0.6 | 23.1 ± 0.6 | 22.2 ± 0.6 | 21.2 ± 0.6
[2], x1 = 0.1 | – | – | – | – | 24.6 ± 0.6 | 23.7 ± 0.6 | 22.8 ± 0.6 | 21.8 ± 0.6
[2], x1 = 0.15 | – | – | – | – | 25.2 ± 0.6 | 24.3 ± 0.6 | 23.4 ± 0.6 | 22.4 ± 0.6
[2], x1 = 0.2 | – | – | – | – | 25.9 ± 0.6 | 24.9 ± 0.6 | 23.9 ± 0.6 | 22.9 ± 0.6
[2], x1 = 0.25 | – | – | – | – | 26.5 ± 0.6 | 25.5 ± 0.6 | 24.5 ± 0.6 | 23.5 ± 0.6
[2], x1 = 0.3 | – | – | – | – | 27.2 ± 0.6 | 26.1 ± 0.6 | 25.1 ± 0.6 | 24.1 ± 0.6
[2], x1 = 0.35 | – | – | – | – | 27.8 ± 0.6 | 26.7 ± 0.6 | 25.7 ± 0.6 | 24.7 ± 0.6
[2], x1 = 0.4 | – | – | – | – | 28.4 ± 0.6 | 27.3 ± 0.6 | 26.2 ± 0.6 | 25.4 ± 0.6
[2], x1 = 0.45 | – | – | – | – | 29.1 ± 0.7 | 27.9 ± 0.6 | 26.8 ± 0.6 | 26 ± 0.6
[2], x1 = 0.5 | – | – | – | – | 29.7 ± 0.7 | 28.5 ± 0.6 | 27.4 ± 0.6 | 26.6 ± 0.6
[2], x1 = 0.55 | – | – | – | – | 30.3 ± 0.7 | 29.1 ± 0.7 | 28 ± 0.6 | 27.2 ± 0.6
[2], x1 = 0.6 | – | – | – | – | 31 ± 0.7 | 29.7 ± 0.7 | 28.6 ± 0.6 | 27.8 ± 0.6
[2], x1 = 0.65 | – | – | – | – | 31.6 ± 0.7 | 30.3 ± 0.7 | 29.2 ± 0.7 | 28.4 ± 0.6
[2], x1 = 0.7 | – | – | – | – | 32.2 ± 0.7 | 30.9 ± 0.7 | 29.8 ± 0.7 | 29 ± 0.7
[2], x1 = 0.75 | – | – | – | – | 32.8 ± 0.7 | 31.6 ± 0.7 | 30.4 ± 0.7 | 29.5 ± 0.7
[2], x1 = 0.8 | – | – | – | – | 33.5 ± 0.7 | 32.1 ± 0.7 | 31 ± 0.7 | 30.1 ± 0.7
[2], x1 = 0.85 | – | – | – | – | 34.1 ± 0.7 | 32.8 ± 0.7 | 31.6 ± 0.7 | 30.7 ± 0.7
[2], x1 = 0.9 | – | – | – | – | 34.7 ± 0.7 | 33.4 ± 0.7 | 32.2 ± 0.7 | 31.4 ± 0.7
[2], x1 = 0.95 | – | – | – | – | 35.3 ± 0.7 | 33.9 ± 0.7 | 32.8 ± 0.7 | 32 ± 0.7
[2], x1 = 1 | – | – | – | – | 35.9 ± 0.7 | 34.6 ± 0.7 | 33.5 ± 0.7 | 32.8 ± 0.7
